Experimental data published in patent US10517889B2, “Modulators of SMAD7 expression” (Ionis Pharmaceuticals, Inc., priority 2017, dated 2019).
Strand notation (5' to 3'): a small letter for the sugar, then the base; units joined by * are phosphorothioate-linked, units joined directly phosphodiester-linked; [ ] holds rarer units or linkages, { } end groups; capitals alone tell only the bases. k = constrained ethyl (cEt); [5mC] = 5-methylcytosine; d = 2'-deoxy (DNA)

Tests used:
human SMAD7 mRNA [1] = test: Dose-dependent inhibition of human SMAD7 mRNA expression in Hep3B cells (Example 3, Study 1 and 2); assay type: cell-based; details: electroporation; for % inhibition of SMAD7 mRNA expression: approximately 16 hours; for IC50: Study 2 (740-20000 nM)
In short: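 Hep3B cells, 20,000 per well, electroporated with antisense oligonucleotide at 0.31, 1.25, 5.00 or 20.00 μM (first series) or 0.74, 2.22, 6.67 or 20.00 μM (second series). After ~16 h, SMAD7 mRNA measured by RT-qPCR (RTS5062), normalised to RIBOGREEN total RNA. Percent inhibition vs untreated cells; IC50 derived.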

human SMAD7 mRNA [2] = test: Antisense inhibition of human SMAD7 mRNA expression in Hep3B cells by 3-10-3 cEt gapmers, 10,000 nM, electroporation (Example 2); assay type: cell-based; details: approximately 24 hours; for % inhibition of SMAD7 mRNA expression: electroporation, 10,000 nM antisense oligonucleotide, RTS5062, relative to untreated control cells
In short: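 Hep3B, 20,000 cells/well; electroporation, 10,000 nM ASO; ~24 h. Readout: SMAD7 mRNA by qRT-PCR (RTS5062), RIBOGREEN-normalised; % inhibition vs untreated.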

[3] = 740 nM, Study 2, relative to untreated control cells
[4] = Hep3B cells, electroporation with 10,000 nM antisense oligonucleotide, SMAD7 mRNA by RT-PCR (RTS5062), relative to untreated control cells

Substance	% inhibition of SMAD7 mRNA expression (human SMAD7 mRNA [1]; [3]) [%]	% inhibition of SMAD7 mRNA expression (human SMAD7 mRNA [1]; 2220 nM, Study 2) [%]	% inhibition of SMAD7 mRNA expression (human SMAD7 mRNA [1]; 6670.0 nM, Study 2) [%]	% inhibition of SMAD7 mRNA expression (human SMAD7 mRNA [1]; 20000.0 nM, Study 2) [%]	IC50 (human SMAD7 mRNA [1]) [µM]	% Inhibition (human SMAD7 mRNA [2]; [4]) [%]	% inhibition of SMAD7 mRNA expression (human SMAD7 mRNA [2]; Hep3B cells) [%]	% Inhibition (human SMAD7 mRNA [2]; Hep3B cells, electroporation with 10,000 nM antisense oligonucleotide, RTS5062, percent inhibition of SMAD7 mRNA relative to untreated control cells) [%]	% Inhibition (human SMAD7 mRNA [2]; SMAD7 mRNA, Hep3B cells, 10,000 nM antisense oligonucleotide, electroporation, primer probe set RTS5062, relative to untreated control cells) [%]
799511 (antisense kT*kA*kA*dT*dG*dA*d[5mC]*dA*dA*dT*dT*d[5mC]*d[5mC]*kA*kG*k[5mC]) [compound 799511]	0	0	35	65	3	65			
799759 (antisense kA*k[5mC]*k[5mC]*dA*dT*dA*dT*d[5mC]*dA*d[5mC]*dT*d[5mC]*d[5mC]*kT*kT*k[5mC]) [compound 799759]	22	44	45	66	2		66		
830128 (antisense kA*k[5mC]*k[5mC]*dT*d[5mC]*d[5mC]*dG*dA*dG*dG*d[5mC]*dA*d[5mC]*k[5mC]*kA*k[5mC]) [compound 830128]	20	55	74	85	3	87			
799312 (antisense k[5mC]*kA*kT*d[5mC]*dT*dT*dT*dA*dA*dG*d[5mC]*dA*d[5mC]*kG*k[5mC]*kT) [compound 799312]	23	46	49	69	4			66	
799534 (kG*kA*kG*dA*dA*dT*dG*dA*dA*dG*dT*d[5mC]*d[5mC]*kA*kG*kA; antisense) [compound 799534]	16	60	51	86	1		68		
799467 (antisense kG*k[5mC]*kA*dG*dA*d[5mC]*dA*dG*dA*dA*dG*d[5mC]*dT*k[5mC]*kT*kA) [compound 799467]	4	27	65	57	> 20	69			
799596 (kA*k[5mC]*kT*d[5mC]*dT*dG*dA*dA*d[5mC]*dG*dG*dA*dA*kA*kG*kA; antisense) [compound 799596]	14	35	66	83	5		49		
830208 (kA*kA*kG*dG*dT*dG*dA*d[5mC]*dT*d[5mC]*dA*dT*d[5mC]*kA*kG*kG; antisense) [compound 830208]	38	70	79	90	1	57			
790736 (kT*k[5mC]*kA*dA*dA*d[5mC]*dT*dT*dT*dG*dA*dA*dG*k[5mC]*k[5mC]*kT; antisense) [compound 790736]	32	56	68	74	> 20				60
799563 (kA*kA*kA*dA*d[5mC]*dA*dA*dA*d[5mC]*dA*dA*dG*dG*kG*kT*k[5mC]; antisense) [compound 799563]	32	57	85	88	5		68		
